Assay results from ChEMBL document CHEMBL1201862, “PubChem BioAssay data set” (2004).
Activity calls are given as the source filed them. Rule as the data show it, for most assays here: actives have a measured IC50 and inactives only a lower limit.

How the values were obtained:
Melanocortin receptor 4 = Melanocortin receptor 4 (Homo sapiens, UniProt P32245); assay: inhibitors of MC4R cAMP signaling – cell-based, TR-FRET, biased antagonists, dose response (AID 602298); format: functional;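 also: antagonist potency against agonist-stimulated cAMP production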
Melanocortin receptor 4, sequence (P32245 whole entry): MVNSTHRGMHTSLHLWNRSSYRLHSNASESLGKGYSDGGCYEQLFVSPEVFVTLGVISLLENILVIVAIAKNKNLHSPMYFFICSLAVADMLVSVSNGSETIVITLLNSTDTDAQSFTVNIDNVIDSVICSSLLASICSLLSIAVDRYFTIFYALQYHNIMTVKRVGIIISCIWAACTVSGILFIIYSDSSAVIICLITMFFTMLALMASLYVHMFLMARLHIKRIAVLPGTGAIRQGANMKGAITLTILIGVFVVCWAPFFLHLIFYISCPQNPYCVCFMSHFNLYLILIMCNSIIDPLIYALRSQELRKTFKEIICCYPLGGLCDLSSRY

[1] = cAMP pathway inhibition in counterscreen cell line – TR-FRET cAMP detection, counter-screen for MC4R biased antagonist project, dose response (AID 602305); format: functional, cell-based;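 also: U2OS cells stimulated with forskolin near its EC80 as the cAMP inducer; potency is for inhibition of forskolin-stimulated cAMP signaling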
[2] = target: T1, Sentrin-specific protease 7 (Homo sapiens, UniProt Q9BQF6); assay: inhibition of human SENP7 cleavage activity – biochemical, luminescence, set 2, SAR follow-up (AID 588600); format: functional
T1 sequence (Q9BQF6 whole entry): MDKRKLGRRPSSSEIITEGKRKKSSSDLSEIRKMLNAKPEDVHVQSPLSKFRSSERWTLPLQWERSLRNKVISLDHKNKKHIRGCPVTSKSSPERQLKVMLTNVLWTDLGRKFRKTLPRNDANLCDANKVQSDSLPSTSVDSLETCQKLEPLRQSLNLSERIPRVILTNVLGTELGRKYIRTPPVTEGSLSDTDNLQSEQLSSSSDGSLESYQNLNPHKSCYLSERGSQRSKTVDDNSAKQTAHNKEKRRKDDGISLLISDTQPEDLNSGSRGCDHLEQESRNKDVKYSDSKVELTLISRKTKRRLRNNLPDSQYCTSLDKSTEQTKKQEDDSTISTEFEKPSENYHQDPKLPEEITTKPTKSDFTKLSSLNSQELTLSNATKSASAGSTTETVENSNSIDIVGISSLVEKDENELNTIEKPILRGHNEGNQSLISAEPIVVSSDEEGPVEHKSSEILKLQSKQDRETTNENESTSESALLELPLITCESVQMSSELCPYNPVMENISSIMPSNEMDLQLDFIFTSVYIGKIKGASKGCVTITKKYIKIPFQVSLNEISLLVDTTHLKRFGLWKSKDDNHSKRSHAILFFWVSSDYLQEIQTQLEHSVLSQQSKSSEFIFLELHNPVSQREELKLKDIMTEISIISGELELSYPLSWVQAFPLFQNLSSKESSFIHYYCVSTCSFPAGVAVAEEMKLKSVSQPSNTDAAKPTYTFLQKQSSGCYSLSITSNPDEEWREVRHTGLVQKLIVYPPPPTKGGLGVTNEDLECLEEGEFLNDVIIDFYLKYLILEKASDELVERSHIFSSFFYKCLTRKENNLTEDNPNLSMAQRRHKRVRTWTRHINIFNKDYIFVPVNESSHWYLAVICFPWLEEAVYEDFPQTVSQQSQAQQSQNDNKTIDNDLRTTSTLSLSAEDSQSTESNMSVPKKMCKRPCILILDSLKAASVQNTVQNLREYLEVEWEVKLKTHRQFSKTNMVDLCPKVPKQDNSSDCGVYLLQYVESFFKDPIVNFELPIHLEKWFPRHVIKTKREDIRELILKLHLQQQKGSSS

[3] = target: T2, Sentrin-specific protease 6 (Homo sapiens, UniProt Q9GZR1); assay: SAR Analysis of small molecule inhibitors of Sentrin-specific protease 6 (SENP6) using a Luminescent assay. [Related pubchem assays (depositor defined):AID2582, AID2599]; format: functional
T2 sequence (Q9GZR1 whole entry): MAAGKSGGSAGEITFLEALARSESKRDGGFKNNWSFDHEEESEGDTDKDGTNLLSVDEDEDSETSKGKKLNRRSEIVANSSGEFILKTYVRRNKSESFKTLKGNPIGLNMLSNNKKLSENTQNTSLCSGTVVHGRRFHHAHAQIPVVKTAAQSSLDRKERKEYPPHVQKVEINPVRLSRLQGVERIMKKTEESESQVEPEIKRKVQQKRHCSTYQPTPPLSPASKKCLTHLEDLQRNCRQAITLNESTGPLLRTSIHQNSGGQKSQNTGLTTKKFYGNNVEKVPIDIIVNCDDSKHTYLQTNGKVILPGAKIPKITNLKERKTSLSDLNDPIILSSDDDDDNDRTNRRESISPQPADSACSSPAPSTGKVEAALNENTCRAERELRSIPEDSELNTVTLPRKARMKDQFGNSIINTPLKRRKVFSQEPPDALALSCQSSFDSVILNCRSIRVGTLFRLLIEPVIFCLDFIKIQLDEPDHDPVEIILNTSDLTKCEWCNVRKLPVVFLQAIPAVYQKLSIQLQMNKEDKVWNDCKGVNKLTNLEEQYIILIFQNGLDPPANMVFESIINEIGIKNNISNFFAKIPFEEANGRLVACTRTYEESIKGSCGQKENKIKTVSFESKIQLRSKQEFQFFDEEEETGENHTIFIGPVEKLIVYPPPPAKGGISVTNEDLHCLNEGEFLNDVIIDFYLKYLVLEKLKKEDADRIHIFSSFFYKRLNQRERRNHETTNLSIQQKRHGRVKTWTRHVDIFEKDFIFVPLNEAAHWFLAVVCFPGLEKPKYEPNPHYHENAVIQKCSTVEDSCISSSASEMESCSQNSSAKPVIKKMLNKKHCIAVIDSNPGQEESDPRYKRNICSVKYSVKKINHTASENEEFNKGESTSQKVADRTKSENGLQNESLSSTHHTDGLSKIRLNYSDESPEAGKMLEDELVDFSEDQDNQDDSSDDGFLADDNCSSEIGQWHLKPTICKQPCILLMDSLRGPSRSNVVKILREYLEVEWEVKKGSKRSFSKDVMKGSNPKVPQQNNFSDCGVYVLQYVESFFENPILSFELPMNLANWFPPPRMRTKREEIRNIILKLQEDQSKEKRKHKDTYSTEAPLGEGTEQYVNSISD

Caspase-3 [4] = target: T3, Caspase-3 (Homo sapiens, UniProt P42574); assay: SAR Analysis of small molecule inhibitors of Sentrin-specific proteases (SENPs) using a Caspase-3 Selectivity assay. [Related pubchem assays (depositor defined):AID2540, AID2599, AID434973, AID489001]; format: functional
T3 sequence (P42574 whole entry): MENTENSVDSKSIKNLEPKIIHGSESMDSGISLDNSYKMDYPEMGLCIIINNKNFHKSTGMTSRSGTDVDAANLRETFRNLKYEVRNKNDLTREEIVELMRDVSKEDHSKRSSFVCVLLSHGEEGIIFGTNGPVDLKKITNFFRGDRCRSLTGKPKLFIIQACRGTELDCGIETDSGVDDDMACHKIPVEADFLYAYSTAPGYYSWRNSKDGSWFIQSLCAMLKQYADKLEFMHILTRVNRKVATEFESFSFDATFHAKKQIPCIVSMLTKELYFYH

[5] = target: T4, Sentrin-specific protease 8 (Homo sapiens, UniProt Q96LD8); assay: inhibition of sentrin protease 8 – biochemical, luminescence, set 2, SAR follow-up (AID 588601); format: functional
T4 sequence (Q96LD8 whole entry): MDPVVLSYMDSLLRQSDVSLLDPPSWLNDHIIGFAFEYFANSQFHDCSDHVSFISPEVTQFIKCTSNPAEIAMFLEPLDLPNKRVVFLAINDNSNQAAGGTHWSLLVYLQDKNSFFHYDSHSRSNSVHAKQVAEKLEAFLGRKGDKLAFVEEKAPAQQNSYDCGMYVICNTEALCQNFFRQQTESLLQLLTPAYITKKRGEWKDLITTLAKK

[6] = target: T4, Sentrin-specific protease 8; assay: inhibition of human SENP8 cleavage activity – biochemical, luminescence, SAR follow-up (AID 504501); format: functional
Caspase-3 [7] = target: T3, Caspase-3; assay: inhibition of recombinant caspase-3 activity – biochemical, luminescence, set 2, selectivity assay for SENP protease inhibitor project, SAR follow-up (AID 588599); format: functional
[8] = target: T1, Sentrin-specific protease 7; assay: inhibition of human SENP7 cleavage activity – biochemical, luminescence, SAR follow-up (AID 504497); format: functional
[9] = target: T2, Sentrin-specific protease 6; assay: inhibition of human SENP6 catalytic domain – biochemical, luminescence, set 2, SAR follow-up (AID 588598); format: functional
[10] = target: Serine/threonine-protein kinase pim-1 (Homo sapiens, UniProt P11309); format: functional
Serine/threonine-protein kinase pim-1, sequence (P11309 whole entry): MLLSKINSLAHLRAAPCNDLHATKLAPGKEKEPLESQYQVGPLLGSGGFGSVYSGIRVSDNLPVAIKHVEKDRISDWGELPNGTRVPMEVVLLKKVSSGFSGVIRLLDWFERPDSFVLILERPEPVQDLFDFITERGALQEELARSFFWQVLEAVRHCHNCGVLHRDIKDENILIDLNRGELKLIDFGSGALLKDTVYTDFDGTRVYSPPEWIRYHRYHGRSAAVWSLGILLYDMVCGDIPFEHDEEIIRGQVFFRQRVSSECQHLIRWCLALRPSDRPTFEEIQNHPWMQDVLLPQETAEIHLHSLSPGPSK

| SMILES | IC50 [2] | IC50 [5] | IC50 (Caspase-3 [7]) | IC50 [9] | other results |
| --- | --- | --- | --- | --- | --- |
| Cc1cc(C(=O)COc2cc(F)ccc2[N+](=O)[O-])c(C)n1CC1CCCO1 (stereo not given) | – | – | – | – | IC50 (Melanocortin receptor 4): > 64.6 µM (inactive); IC50 [1]: > 64.6 µM (inactive) |
| Cc1csc(C(=O)Nc2nc3ccccc3s2)c1 | 19.2 µM (active) | 21.4 µM (active) | 34 µM (active) | 23.4 µM (active) | IC50 [3]: 2.8 µM (active); IC50 (Caspase-3 [4]): 3.6 µM (active); IC50 [6]: 3.2 µM (active); IC50 [8]: 1.8 µM (active) |
| Cc1ccccc1-c1noc(/C(C#N)=C\c2ccc3c(c2)OCCO3)n1 | 5.42 µM (active) | > 99 µM (inactive) | 2.16 µM (active) | 4.82 µM (active) | – |
| Cc1cc(=O)n2[nH]cc(C(=O)NCc3ccccc3)c2n1 | – | – | – | – | Ki [10]: 3.98 µM (active) |
